Measurements as given in US11819489B2 (priority 2017, dated 2023).
Like-named read-outs stand apart in the source and are kept apart here.

What was measured:
K562 cells [1] = assay: cells; details: Homo sapiens, K562, 24 h
HL-60 cells [2] = assay: cells; details: Homo sapiens, HL-60, 24 h
KARPAS 45 cells [3] = assay: cells; details: Homo sapiens, 24 h
HepG2 cells [4] = assay: cells; details: Homo sapiens, HepG2, 24 h
[5] = test system: Chinese hamster (CH) solid tumour cells; assay: cells; details: Cricetulus griseus, 24 h
[6] = test system: human peripheral blood mononuclear cells (hPBMC); assay: cells; details: PBMC, 24 h
in vitro [7] = details: human
in vitro [8] = details: Chinese hamster
K562 cells [9] = assay: Cellular As uptake, K562 cells; format: cell-based, human; details: K562, 24-h treatment, 1.5 μM As
Experimental: (§1) FIG. 24 is a graphical summary of the cellular As concentrations associated with the specified cell lines following 24-h treatment (1.5 μM As). The results are represented as the mean and standard deviation of triplicate samples.
(§2) FIG. 24 summarises the cellular As concentrations associated with the different cell types following 24-h treatment with the various As compounds (1.5 μM As). The leukemia cell lines, K562, HL-60, Kasumi-1 and KARPAS 45, are depicted in red (lighter of the filled in blocks), and the non-leukemia cell types are depicted in black (darkest shading), with the cancerous adherent cells, HepG2, in the diagonal stripes, and the normal cells, hPBMC, in solid black.

HL-60 cells [10] = assay: Cellular As uptake, HL-60 cells; format: cell-based, human; details: HL-60, 24-h treatment, 1.5 μM As
Experimental: as §1, §2

Kasumi-1 cells [11] = assay: Cellular As uptake, Kasumi-1 cells; format: cell-based, human; details: Kasumi-1, 24-h treatment, 1.5 μM As
Experimental: as §1, §2

KARPAS 45 cells [12] = assay: Cellular As uptake, KARPAS 45 cells; format: cell-based, human; details: 1.5 μM As
Experimental: as §1, §2

HepG2 cells [13] = format: cell-based, human
hPBMC = assay: Cellular As uptake, hPBMC; format: cell-based, human; details: 24-h treatment, 1.5 μM As
Experimental: as §1, §2

K562 cells [14] = test system: K562 cells
KARPAS 45 cells [15] = test system: KARPAS 45 cells
[16] = test system: human peripheral blood mononuclear cells (hPBMC)
Kasumi-1 cells [17] = assay: cells; details: Homo sapiens, Kasumi 1, 24 h

CC(=O)Nc1cc([As](=O)(O)O)ccc1O [Acetarsol]
IC50 (K562 cells [1]): > 1000 µM
viability at 1000 µM (K562 cells [1]; read-out: K562 cells still viable): 60.5%
IC50 (HL-60 cells [2]): > 1000 µM
IC50 (KARPAS 45 cells [3]): > 1000 µM
IC50 (HepG2 cells [4]): > 1000 µM
IC50 [5]: > 1000 µM
IC50 [6]: > 1000 µM
viability (in vitro [7]): ~100%
viability (in vitro [8]): ~100%

O=[As]O [Arsenite, Sodium meta-arsenite]
cellular As concentration (K562 cells [9]): < 4×10^−14 g/cell
cellular As concentration (HL-60 cells [10]): < 4×10^−14 g/cell
cellular As concentration (Kasumi-1 cells [11]): < 4×10^−14 g/cell
cellular As concentration in KARPAS 45 cells, times more than in HepG2 cells (KARPAS 45 cells [12]; 24-h treatment): 2.2 times
cellular As concentration (KARPAS 45 cells [12]; KARPAS 45, 24-h treatment): < 4×10^−14 g/cell
cellular As concentration (HepG2 cells [13]): < 4×10^−14 g/cell
cellular As concentration (hPBMC): < 4×10^−14 g/cell
IC50 (K562 cells [14]): 18.6 ± 0.5 µM
IC50 (KARPAS 45 cells [15]): 66 ± 3 µM
IC50 [16]: 40 ± 8 µM
IC50 (K562 cells [1]): 18.6 ± 0.49 µM
IC50 (HL-60 cells [2]): 20 ± 1 µM
IC50 (Kasumi-1 cells [17]): 61.2 ± 0.6 µM
IC50 (KARPAS 45 cells [3]): 66.2 ± 2.6 µM
IC50 (HepG2 cells [4]): 89 ± 1 µM
IC50 [5]: 26.1 ± 0.8 µM
IC50 [6]: 40.1 ± 7.7 µM
